Read-outs that look alike come from different tables or passages of the source.
Assays:
Format in all cases: biochemical
[1] = molecular target: T1, aggrecanase-1 (Homo sapiens, UniProt O75173); test: Aggrecanase-1 inhibitory action (Particle Assay, GAG release from aggrecan-containing polyacrylamide particles)
T1 sequence (O75173 213-837): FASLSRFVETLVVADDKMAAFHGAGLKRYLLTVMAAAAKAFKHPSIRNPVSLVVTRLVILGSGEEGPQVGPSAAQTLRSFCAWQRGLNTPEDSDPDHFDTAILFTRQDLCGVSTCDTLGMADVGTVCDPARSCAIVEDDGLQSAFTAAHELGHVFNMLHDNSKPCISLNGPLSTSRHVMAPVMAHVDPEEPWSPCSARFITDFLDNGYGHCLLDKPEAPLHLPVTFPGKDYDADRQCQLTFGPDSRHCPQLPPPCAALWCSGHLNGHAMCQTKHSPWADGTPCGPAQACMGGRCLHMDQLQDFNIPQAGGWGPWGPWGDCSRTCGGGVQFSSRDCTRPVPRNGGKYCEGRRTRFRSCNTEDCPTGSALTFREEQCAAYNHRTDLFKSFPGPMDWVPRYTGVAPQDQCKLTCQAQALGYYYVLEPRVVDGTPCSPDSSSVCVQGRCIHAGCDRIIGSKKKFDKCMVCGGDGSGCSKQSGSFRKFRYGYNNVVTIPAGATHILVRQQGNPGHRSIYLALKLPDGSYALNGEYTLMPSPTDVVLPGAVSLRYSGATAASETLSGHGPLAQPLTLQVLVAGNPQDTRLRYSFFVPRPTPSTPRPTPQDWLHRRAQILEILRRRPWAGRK
Method: Particle Assay was used for determination of aggrecanase activity.
(§1) The enzyme and substrate were diluted with Tris-HCl buffer, and test compounds were diluted with dimethyl sulfoxide (DMSO).
Test compounds and the enzyme were added into 96-well plate, and polyacrylamide particles containing aggrecan were added as a substrate and the mixture was incubated at 37° C. for 15 hr.
After incubation, the supernatant was transferred to another plate, and mixed with 1,9-dimethylmethylene blue. The absorbence at 595 nm was measured to quantify the amount of glycosaminoglycan (GAG) released in the reaction supernatant. Whale chondroitin sulfate was used as the standard of GAG. The inhibitory activity of the compound in each well (%) was calculated based on the values of enzyme-free well and inhibitor-free well. The inhibitory activity of the compound was represented as […] (μM).

[2] = molecular target: T2, Recombinant Human MMP-13 (Homo sapiens, UniProt P45452); test: MMP-13 inhibitory activity (MMP-13 specific fluorescent substrate with quencher)
T2 construct: purchased R&D systems 511-MM
Method: Inhibitory activity of tested compounds on MMP-13 was measured using MMP-13 specific fluorescent substrate with quencher.
as §1
Test compounds and the enzyme (Recombinant Human MMP-13: R&D systems, 511-MM) were added into 96-well plate. The reaction was initiated by adding synthetic substrate (7-MCA-Pro-CHA-Gly-NVal-His-Ala-DPA: enzyme systems products, Met-06) into the plate. After incubation at 25° C. for 1 h, the reaction was terminated by addition of reaction terminating solution containing acetic acid. Fluorescence intensity of each well was measured (Ex: 325 nm, […] 405 nm) and the MMP-13 inhibitory activity of the compound in each well (%) was calculated based on the values of enzyme-free well and inhibitor-free well. The inhibitory activity of the compound was represented as IC50 (μM).

[3] = molecular target: T3, MMP-1 (Homo sapiens, UniProt P03956); test: MMP-1 inhibitory action (Type I collagen Activity Measurement kit, FITC-labeled collagen type I)
T3 sequence (P03956 100-469): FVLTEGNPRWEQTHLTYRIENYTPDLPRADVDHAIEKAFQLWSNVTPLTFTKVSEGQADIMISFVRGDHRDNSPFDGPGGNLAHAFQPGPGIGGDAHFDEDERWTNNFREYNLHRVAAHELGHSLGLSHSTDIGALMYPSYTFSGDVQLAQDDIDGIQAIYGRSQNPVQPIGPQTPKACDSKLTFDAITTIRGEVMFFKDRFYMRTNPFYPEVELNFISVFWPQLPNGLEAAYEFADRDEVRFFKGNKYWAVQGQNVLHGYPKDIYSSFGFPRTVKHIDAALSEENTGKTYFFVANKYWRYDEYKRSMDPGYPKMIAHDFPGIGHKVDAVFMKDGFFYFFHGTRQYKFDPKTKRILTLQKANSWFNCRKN
Method: For MMP-1 Assay, Type I collagen Activity Measurement kit (YAGAI YU-72013) modified to a 96-well plate format was used.
The principle of the kit is based on the property of collagen that becomes soluble in ethanol after being cleaved by MMP-1.
as §1
The enzyme and test compounds were added into 96-well plate, and fluorescein isothiocianate (FITC)-labeled collagen type I was added as a substrate and the mixture was incubated at 37° C. for 3 hr.
The reaction was terminated by addition of Tris-HCl buffer containing ethanol. After centrifugation, the supernatant containing denatured substrate was transferred to another 96-well plate. The collagenase activity of MMP-1 was determined by measuring FITC fluorescence intensity (excitation wavelength 485 nm, emission wavelength 530 nm) of each well. The inhibitory activity of the compound in each well (%) was calculated based on the values of enzyme-free well and inhibitor-free well. The inhibitory activity of the compound was represented as IC50 (μM).

[4] = aggrecanase-1 inhibitory action, read-out: IC50 AG1 (Experimental Example 1)
[5] = Recombinant Human MMP-13, fluorescent substrate, 25° C. for 1 h, read-out: IC50 MMP13 (Experimental Example 3)
[6] = Experimental Example 1, read-out: IC50 AG1
[7] = Experimental Example 3, read-out: IC50 MMP13
[8] = Experimental Example 2, read-out: IC50 MMP1
[9] = MMP-1 inhibitory action, FITC-labeled collagen type I, 37° C. for 3 hr, read-out: IC50 MMP1 (Experimental Example 2)

SMILES | IC50 [1, 4] [nM] | IC50 [3, 9] [nM] | further results
O=C(O)[C@]1(NS(=O)(=O)c2ccc(-c3nsc(CF)n3)s2)C[C@@H]1c1ccccc1 [Example 2-115] | ≥ 1000 | – | IC50 [2, 5]: < 1000 nM
C[C@]1(c2ccccc2)C[C@@]1(NS(=O)(=O)c1csc2ccc(-c3ccccc3)cc12)C(=O)O [Example 2-585] | – | – | IC50 [1, 6]: ≥ 1000 nM; IC50 [2, 7]: ≥ 1000 nM
N#Cc1ccc(-c2ccc(S(=O)(=O)N[C@@]3(C(=O)O)C[C@@H]3c3ccccc3)s2)s1 [Example 2-34] | ≥ 1000 | – | IC50 [2, 5]: < 1000 nM
C[C@]1(c2ccccc2)C[C@@]1(NS(=O)(=O)c1ccc(N2CCC(F)(F)CC2)s1)C(=O)O [Example 2-455] | – | – | IC50 [1, 6]: ≥ 1000 nM; IC50 [2, 7]: ≥ 1000 nM
O=C(O)C1(NS(=O)(=O)N2CCN(c3cccc(Cl)c3)CC2)CC1c1ccccc1 (stereo not drawn) [Example 2-31] | ≥ 1000 | – | IC50 [2, 5]: ≥ 1000 nM
O=C(O)C1(NS(=O)(=O)N2CCN(c3ccc(Cl)c(C(F)(F)F)c3)CC2)CC1c1ccccc1 (stereo not drawn) [Example 2-30] | ≥ 1000 | – | IC50 [2, 5]: ≥ 1000 nM
O=C(O)C1(NS(=O)(=O)N2CCN(c3ccc(C(F)(F)F)cc3)CC2)CC1c1ccccc1 (stereo not drawn) [Example 2-29] | ≥ 1000 | – | IC50 [2, 5]: < 100 nM
O=C(O)C1(NS(=O)(=O)c2ccc(-c3ccc(Cl)cc3)s2)CC1Cc1ccccc1 (stereo not drawn) [Example 2-38] | ≥ 1000 | – | IC50 [2, 5]: < 1000 nM
Cn1nncc1-c1ccc(S(=O)(=O)N[C@@]2(C(=O)O)C[C@]2(C)c2ccccc2)s1 [Example 2-586] | – | – | IC50 [1, 6]: ≥ 1000 nM; IC50 [2, 7]: ≥ 10000 nM
O=C(O)C1(NS(=O)(=O)N2CCN(c3cccc(C(F)(F)F)c3)CC2)CC1c1ccccc1 (stereo not drawn) [Example 2-28] | ≥ 1000 | – | IC50 [2, 5]: ≥ 10000 nM
CC1[C@H](c2ccccc2)[C@]1(NS(=O)(=O)c1ccc(-c2cnc3ccccc3n2)s1)C(=O)O (stereo partly drawn) [Example 2-456] | – | – | IC50 [1, 6]: ≥ 1000 nM; IC50 [2, 7]: ≥ 1000 nM
CC1[C@H](c2ccccc2)[C@]1(NS(=O)(=O)c1ccc(-c2ccc3[nH]c(=O)sc3c2)s1)C(=O)O (stereo partly drawn) [Example 2-468] | – | – | IC50 [1, 6]: < 1000 nM; IC50 [3, 8]: ≥ 1000 nM
O=C(O)C1(NS(=O)(=O)c2ccc(-c3ccc(Cl)cc3)s2)CC1c1cccc(O)c1 (stereo not drawn) [Example 1-116] | < 1000 | ≥ 1000 | –
O=C(O)C1(NS(=O)(=O)c2ccc(-c3ccc(Cl)cc3)cc2)CC1c1cccc(O)c1 (stereo not drawn) [Example 1-44] | < 1000 | ≥ 1000 | –
COc1cccc(C2CC2(NS(=O)(=O)c2ccc(-c3ccc(Cl)cc3)s2)C(=O)O)c1 (stereo not drawn) [Example 1-115] | < 1000 | ≥ 1000 | –
C[C@]1(c2ccccc2)C[C@@]1(NS(=O)(=O)c1ccc(-c2ccc(N)cc2)s1)C(=O)O [Example 2-583] | – | – | IC50 [1, 6]: ≥ 1000 nM; IC50 [2, 7]: ≥ 1000 nM
CN(C)Cc1cccc(C2CC2(NS(=O)(=O)c2ccc(-c3ccc(Cl)cc3)s2)C(=O)O)c1 (stereo not drawn) [Example 1-98] | < 1000 | ≥ 10000 | –
O=C(O)[C@]1(NS(=O)(=O)c2ccc(-c3cccc(Cl)c3)s2)C[C@@H]1c1ccccc1 [Example 1-110] | < 1000 | ≥ 1000 | –
O=C1NCc2ccccc2C2CC12NS(=O)(=O)c1ccc(-c2ccc(Cl)cc2)s1 (stereo not drawn) [Example 2-415] | – | – | IC50 [1, 6]: ≥ 1000 nM; IC50 [3, 8]: ≥ 10000 nM
O=C(O)C1(NS(=O)(=O)c2ccc3c(c2)Cc2cc(F)ccc2-3)CC1c1ccccc1 (stereo not drawn) [Example 1-80] | < 100 | ≥ 10000 | –

SMILES | IC50 [1, 4] [nM] | IC50 [3, 9] [nM] | further results
O=C(O)C1(NS(=O)(=O)c2ccc(-c3ccc(Cl)cc3)s2)CC1c1cccnc1 (stereo not drawn) [Example 2-70] | < 1000 | ≥ 10000 | –
O=C(CO)Nc1cccc(C2CC2(NS(=O)(=O)c2ccc(-c3ccc(Cl)cc3)cc2)C(=O)O)c1 (stereo not drawn) [Example 1-105] | < 1000 | ≥ 1000 | –
Cc1cnc(-c2ccc(S(=O)(=O)N[C@@]3(C(=O)O)C[C@]3(C)c3ccccc3)s2)o1 [Example 2-418] | – | – | IC50 [1, 6]: ≥ 1000 nM; IC50 [3, 8]: ≥ 1000 nM
O=C(COc1ccccc1C1CC1(NS(=O)(=O)c1ccc(-c2ccc(Cl)cc2)s1)C(=O)O)N1CCOCC1 (stereo not drawn) [Example 1-146] | < 100 | ≥ 10000 | –
O=C(O)[C@]1(NS(=O)(=O)c2ccc(-c3csc4ccccc34)s2)C[C@@H]1c1ccccc1 [Example 2-118] | ≥ 1000 | ≥ 1000 | –
COc1ccc(-c2ccc(S(=O)(=O)N[C@@]3(C(=O)O)C[C@@H]3c3ccccc3)s2)nn1 [Example 2-33] | ≥ 1000 | – | IC50 [2, 5]: < 1000 nM
NC(=O)c1cccc(C2CC2(NS(=O)(=O)c2ccc(-c3ccc(Cl)cc3)s2)C(=O)O)c1 (stereo not drawn) [Example 1-137] | < 1000 | ≥ 1000 | –
CC(C)(C)OC(=O)N1CCC(Nc2cccc(C3CC3(NS(=O)(=O)c3ccc(-c4ccc(Cl)cc4)cc3)C(=O)O)c2)CC1 (stereo not drawn) [Example 1-42] | < 1000 | ≥ 1000 | –
Cc1cnc(-c2ccc(S(=O)(=O)N[C@@]3(C(=O)O)C(C)[C@@H]3c3ccccc3)s2)o1 (stereo partly drawn) [Example 2-417] | – | – | IC50 [1, 6]: < 1000 nM; IC50 [3, 8]: ≥ 1000 nM
O=C(O)C1(NS(=O)(=O)c2ccc(-c3ccc(Cl)cc3)cc2)CC1c1cccc(NCc2ncc[nH]2)c1 (stereo not drawn) [Example 1-112] | < 1000 | ≥ 1000 | –
CC1[C@H](c2ccccc2)[C@]1(NS(=O)(=O)c1ccc(-c2nc3cc(Cl)ccc3[nH]2)s1)C(=O)O (stereo partly drawn) [Example 2-604] | – | – | IC50 [1, 6]: < 1000 nM; IC50 [3, 8]: ≥ 1000 nM
Cc1nc2cc(-c3ccc(S(=O)(=O)N[C@@]4(C(=O)O)C(C)[C@@H]4c4ccccc4)s3)ccc2s1 (stereo partly drawn) [Example 2-469] | – | – | IC50 [1, 6]: ≥ 1000 nM; IC50 [3, 8]: ≥ 10000 nM
CN1CCC(N(C)Cc2cccc(C3CC3(NS(=O)(=O)c3ccc(-c4ccc(Cl)cc4)s3)C(=O)O)c2)CC1 (stereo not drawn) [Example 1-104] | < 1000 | ≥ 10000 | –
O=C(O)[C@@]1(NS(=O)(=O)c2ccc(-c3ccc(Cl)cc3)cc2)C[C@H]1c1ccccc1 [Example 1-7] | < 1000 | ≥ 10000 | –
Cn1ccnc1CNc1cccc(C2CC2(NS(=O)(=O)c2ccc(-c3ccc(Cl)cc3)cc2)C(=O)O)c1 (stereo not drawn) [Example 1-101] | < 1000 | ≥ 10000 | –
CNC(=O)COc1cccc(C2CC2(NS(=O)(=O)c2ccc(-c3ccc(Cl)cc3)cc2)C(=O)O)c1 (stereo not drawn) [Example 1-118] | < 100 | ≥ 1000 | –
O=C(COc1ccccc1C1CC1(NS(=O)(=O)c1ccc(-c2ccc(Cl)cc2)s1)C(=O)O)NCc1ccccc1 (stereo not drawn) [Example 1-145] | < 1000 | ≥ 10000 | –
Cc1cnc(-c2ccc(S(=O)(=O)N[C@@]3(C(=O)O)C[C@@H]3c3ccccc3)s2)s1 [Example 2-26] | < 1000 | ≥ 10000 | –
O=C(O)[C@]1(NS(=O)(=O)c2ccc(-c3ccc(C(F)F)s3)s2)C[C@@H]1c1ccccc1 [Example 2-102] | < 1000 | < 1000 | –
